Structures are written as SMILES.

The values that follow come from patent US20240228488A1 (TAKEDA PHARMACEUTICAL COMPANY LIMITED, priority 2021, published 2024).

Chain of human activated kallikrein enzyme (P03952 391-638 limits assumed): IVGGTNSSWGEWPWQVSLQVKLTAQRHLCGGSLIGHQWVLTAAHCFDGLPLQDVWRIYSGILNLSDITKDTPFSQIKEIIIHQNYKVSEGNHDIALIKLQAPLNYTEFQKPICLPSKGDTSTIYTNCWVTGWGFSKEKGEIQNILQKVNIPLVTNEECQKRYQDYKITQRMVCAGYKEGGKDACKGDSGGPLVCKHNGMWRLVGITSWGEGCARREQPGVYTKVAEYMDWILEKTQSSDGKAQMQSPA
Chain of human activated kallikrein enzyme (P03952 20-390 partner limits assumed): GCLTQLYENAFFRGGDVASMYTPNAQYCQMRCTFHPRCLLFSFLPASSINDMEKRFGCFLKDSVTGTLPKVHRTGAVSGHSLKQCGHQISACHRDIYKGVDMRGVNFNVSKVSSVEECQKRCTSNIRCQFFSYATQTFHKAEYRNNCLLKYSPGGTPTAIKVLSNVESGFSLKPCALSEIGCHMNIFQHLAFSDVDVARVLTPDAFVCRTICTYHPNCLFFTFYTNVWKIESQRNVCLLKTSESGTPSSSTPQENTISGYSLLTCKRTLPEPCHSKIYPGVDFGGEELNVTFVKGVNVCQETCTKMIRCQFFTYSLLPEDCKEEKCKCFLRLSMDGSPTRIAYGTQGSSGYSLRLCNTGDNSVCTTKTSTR

The assay addresses human activated kallikrein enzyme (Homo sapiens, UniProt P03952). Kind of assay: Plasma kallikrein inhibition, fluorogenic PFR-AMC substrate, 500 pM activated kallikrein format. The conditions noted are these: 500 pM activated kallikrein, 300 uM PFR-AMC, 30 min preincubation, 10 min reaction; read-out: Primary Dose Response Assay: Average EC50. Type of assay: biochemical. The method, then:
Compounds were evaluated for inhibition of the human activated kallikrein enzyme in two formats of an assay employing a fluorogenic peptide substrate. In one assay format, the concentrations of reagents were as follows: 20 mM Tris pH 7.5, 1 mM EDTA, 150 mM sodium chloride, 0.1% PEG-400, 0.1% Triton X-100, 500 pM activated kallikrein enzyme, 300 uM Pro-Phe-Arg-7-amido-4-methylcoumarin (PFR-AMC) substrate. Prior to reaction initiation with substrate, enzyme and inhibitors were preincubated for 30 min at room temperature. After initiation with substrate, reactions were incubated for 10 min at room temperature and fluorescence emission at 460 nm from 380 nm excitation measured with a microplate reader. In another assay format, the concentrations of reagents were as follows: 20 mM Tris pH 7.5, 1 mM EDTA, 150 mM sodium chloride, 0.1% PEG-400, 0.1% Triton X-100, 5 pM activated kallikrein enzyme, 300 uM PFR-AMC substrate. Prior to reaction initiation with substrate, enzyme and inhibitors were preincubated for 30 min at room temperature. After initiation with substrate, reactions were incubated for 18 hr at room temperature and fluorescence emission at 460 nm from 380 nm excitation measured with a microplate reader.
Table 49 provides the results of the assay in the format with 500 pM activated kallikrein assay. For the compounds listed in Table 49, the EC50 values are reported according to the following ranges: A≤1.0 nM; 1.0 nM<B≤10 nM; 10 nM<C≤100 nM; 100 nM<D≤1000 nM; 1000 nM<E≤6000 nM; 6000 nM<F.
Table 51 provides comparative plasma kallikrein inhibition potency in the assay format with 500 pM activated kallikrein assay (described in detail in a preceding example). For the compounds listed in Table 51, the EC50 values are reported according to the following ranges: A≤1.0 nM; 1.0 nM<B≤10 nM; 10 nM<C≤100 nM; 100 nM<D≤1000 nM; 1000 nM<E≤6000 nM; 6000 nM<F.
By EC50 is commonly meant the concentration giving half of the maximal effect. On to `O=C(Nc1cc(NCc2nc3ccc(C4CC4)cn3c2Cl)ncn1)[C@H]1C[C@@H]1c1cccc(Cl)c1` (racemic) [Example 69, rac-(1S*,2S*)-N-(6-(((3-chloro-6-cyclopropylimidazo[1,2-α]pyridin-2-yl)methyl)amino)pyrimidin-4-yl)-2-(3-chlorophenyl)cyclopropane-1-carboxamide], for which the EC50 is 1000 to 6000 nM.
For `O=C(O)CCc1cc(C2CC2)cn2cc(CNc3cc(NC(=O)[C@H]4C[C@@H]4c4cccc(Cl)c4)ncn3)nc12` (racemic) [Example 72, rac-3-(2-(((6-((1S*,2S*)-2-(3-chlorophenyl)cyclopropane-1-carboxamido)pyrimidin-4-yl)amino)methyl)-6-cyclopropylimidazo[1,2-a]pyridin-8-yl)propanoic acid] the value was 1 to 10 nM; for `O=C(Nc1cc(NCc2cn3cc(C4CC4)cc(CN4CCOCC4)c3n2)ncn1)[C@H]1C[C@@H]1c1cccc(Cl)c1` (racemic) [Example 73, rac-(1S*,2S*)-2-(3-chlorophenyl)-N-(6-(((6-cyclopropyl-8-(morpholinomethyl)imidazo[1,2-a]pyridin-2-yl)methyl)amino)pyrimidin-4-yl)cyclopropane-1-carboxamide], 1 to 10 nM.
Turning to `O=C(Nc1cc(NCc2cn3cc(C4CC4)cc(N4CCOCC4=O)c3n2)ncn1)[C@H]1C[C@@H]1c1cccc(Cl)c1` (racemic) [Example 74, rac-(1S*,2S*)-2-(3-chlorophenyl)-N-(6-(((6-cyclopropyl-8-(3-oxomorpholino)imidazo[1,2-a]pyridin-2-yl)methyl)amino)pyrimidin-4-yl)cyclopropane-1-carboxamide], the concentration giving a half-maximal response (EC50) was under 1 nM.
For `O=C(Nc1cncnc1NCc1cn2cc(C3CC3)ccc2n1)[C@H]1C[C@@H]1c1cccc(Cl)c1` (racemic) [Example 78, rac-(1S*,2S*)-2-(3-chlorophenyl)-N-(4-(((6-cyclopropylimidazo[1,2-a]pyridin-2-yl)methyl)amino)pyrimidin-5-yl)cyclopropane-1-carboxamide] the value was 100 to 1000 nM; for `O=C(Nc1cc(NCc2cn3cc(C4CC4)ccc3n2)c(F)cn1)[C@H]1C[C@@H]1c1cccc(Cl)c1` (racemic) [Example 86, rac-(1S*,2S*)-2-(3-chlorophenyl)-N-(4-(((6-cyclopropylimidazo[1,2-a]pyridin-2-yl)methyl)amino)-5-fluoropyridin-2-yl)cyclopropane-1-carboxamide], 100 to 1000 nM.
To `O=C(Nc1cc(NCc2cn3cc(C4CC4)cc(CO)c3n2)ccn1)[C@H]1C[C@@H]1c1cccc(Cl)c1` (racemic) [Example 98, rac-(1S*,2S*)-2-(3-chlorophenyl)-N-(4-(((6-cyclopropyl-8-(hydroxymethyl)imidazo[1,2-a]pyridin-2-yl)methyl)amino)pyridin-2-yl)cyclopropane-1-carboxamide] belongs under 1 nM; to `N#Cc1ccc(Cl)cc1[C@@H]1C[C@H]1C(=O)Nc1cc(NCc2cn3cc(C4CC4)ccc3n2)cnn1` (racemic) [Example 102, rac-(1S*,2S*)-2-(5-chloro-2-cyanophenyl)-N-(5-(((6-cyclopropylimidazo[1,2-a]pyridin-2-yl)methyl)amino)pyridazin-3-yl)cyclopropane-1-carboxamide], 1 to 10 nM.
With `O=C(Nc1cc(OCc2cn3cc(C4CC4)ccc3n2)cnn1)[C@H]1C[C@@H]1c1cccc(Cl)c1` (racemic) [Example 103, rac-(1S*,2S*)-2-(3-chlorophenyl)-N-(5-((6-cyclopropylimidazo[1,2-a]pyridin-2-yl)methoxy)pyridazin-3-yl)cyclopropane-1-carboxamide], the concentration giving a half-maximal response (EC50) is 10 to 100 nM.
Regarding `O=C(Nc1cc(OCc2cn3cc(C4CC4)ccc3n2)ncn1)[C@H]1C[C@@H]1c1cccc(Cl)c1` (racemic) [Example 104, rac-(1S*,2S*)-2-(3-chlorophenyl)-N-(6-((6-cyclopropylimidazo[1,2-a]pyridin-2-yl)methoxy)pyrimidin-4-yl)cyclopropane-1-carboxamide], the concentration for a half-maximal effect (EC50) was in the range of 100 to 1000 nM.
As for `O=C(Nc1cc(NCc2cn3cc(C4CC4)ccc3n2)nc(N2CCCC2)n1)[C@@H]1C[C@H]1c1cccc(Cl)c1` (racemic) [Example 105, rac-(1S*,2S*)-2-(3-chlorophenyl)-N-(6-(((6-cyclopropylimidazo[1,2-a]pyridin-2-yl)methyl)amino)-2-(pyrrolidin-1-yl)pyrimidin-4-yl)cyclopropane-1-carboxamide], the EC50 is 100 to 1000 nM.
To `CSc1nc(NCc2cn3cc(C4CC4)ccc3n2)cc(NC(=O)[C@@H]2C[C@H]2c2cccc(Cl)c2)n1` (racemic) [Example 106, rac-(1S*,2S*)-2-(3-chlorophenyl)-N-(6-(((6-cyclopropylimidazo[1,2-a]pyridin-2-yl)methyl)amino)-2-(methylthio)pyrimidin-4-yl)cyclopropane-1-carboxamide] belongs 100 to 1000 nM.
Take `COc1nc(NCc2cn3cc(C4CC4)ccc3n2)cc(NC(=O)[C@@H]2C[C@H]2c2cccc(Cl)c2)n1` (racemic) [Example 107, rac-(1S*,2S*)-2-(3-chlorophenyl)-N-(6-(((6-cyclopropylimidazo[1,2-a]pyridin-2-yl)methyl)amino)-2-methoxypyrimidin-4-yl)cyclopropane-1-carboxamide]: the concentration giving a half-maximal response (EC50) is 10 to 100 nM.
As to `CS(=O)(=O)c1nc(NCc2cn3cc(C4CC4)ccc3n2)cc(NC(=O)[C@H]2C[C@@H]2c2cccc(Cl)c2)n1` (racemic) [Example 110, rac-(1S*,2S*)-2-(3-chlorophenyl)-N-(6-(((6-cyclopropylimidazo[1,2-a]pyridin-2-yl)methyl)amino)-2-(methylsulfonyl)pyrimidin-4-yl)cyclopropane-1-carboxamide], the EC50 was in the range of 10 to 100 nM.
For the compound `CCOC(=O)c1nc(NCc2cn3cc(C4CC4)ccc3n2)cc(NC(=O)[C@H]2C[C@@H]2c2cccc(Cl)c2)n1` (racemic) [Example 111, rac-ethyl 4-((1S*,2S*)-2-(3-chlorophenyl)cyclopropane-1-carboxamido)-6-(((6-cyclopropylimidazo[1,2-a]pyridin-2-yl)methyl)amino)pyrimidine-2-carboxylate], the EC50 fell in the range of 1 to 10 nM.
Regarding `O=C(O)c1nc(NCc2cn3cc(C4CC4)ccc3n2)cc(NC(=O)[C@H]2C[C@@H]2c2cccc(Cl)c2)n1` (racemic) [Example 112, rac-4-((1S*,2S*)-2-(3-chlorophenyl)cyclopropane-1-carboxamido)-6-(((6-cyclopropylimidazo[1,2-a]pyridin-2-yl)methyl)amino)pyrimidine-2-carboxylic acid], the half-maximal effective concentration (EC50) was in the range of 1 to 10 nM.
On to `O=C(Nc1cc(NCc2cn3cc(C4CC4)ccc3n2)ccn1)[C@@H]1C[C@H]1c1cccc(Cl)c1` (racemic) [Example 115, rac-(1S*,2S*)-2-(3-chlorophenyl)-N-(4-(((6-cyclopropylimidazo[1,2-a]pyridin-2-yl)methyl)amino)pyridin-2-yl)cyclopropane-1-carboxamide], for which the EC50 was 1 to 10 nM.
On to `N#Cc1cc(C2CC2)cn2cc(CNc3ccnc(NC(=O)[C@@H]4C[C@H]4c4cccc(Cl)c4)c3)nc12` (racemic) [Example 119, rac-(1S*,2S*)-2-(3-chlorophenyl)-N-(4-(((8-cyano-6-cyclopropylimidazo[1,2-a]pyridin-2-yl)methyl)amino)pyridin-2-yl)cyclopropane-1-carboxamide], for which the EC50 is 1 to 10 nM.
`COc1cc([C@H]2C[C@@H]2C(=O)Nc2cc(NCc3cn4cc(C5CC5)ccc4n3)ncn2)cc(N)n1` (racemic) [Example 277, rac-(1S*,2S*)-2-(2-amino-6-methoxypyridin-4-yl)-N-(6-(((6-cyclopropylimidazo[1,2-a]pyridin-2-yl)methyl)amino)pyrimidin-4-yl)cyclopropane-1-carboxamide]: the concentration giving a half-maximal response (EC50) was in the range of 100 to 1000 nM.
Consider `Nc1ccc([C@H]2C[C@@H]2C(=O)Nc2cc(NCc3cn4cc(C5CC5)ccc4n3)ncn2)cc1Cl` (racemic) [Example 278, rac-(1S*,2S*)-2-(4-amino-3-chlorophenyl)-N-(6-(((6-cyclopropylimidazo[1,2-a]pyridin-2-yl)methyl)amino)pyrimidin-4-yl)cyclopropane-1-carboxamide], for which the EC50 lay in the range of 100 to 1000 nM.
In the case of `Nc1ccc(Cl)cc1[C@H]1C[C@@H]1C(=O)Nc1cc(NCc2cn3cc(C4CC4)ccc3n2)ncn1` (racemic) [Example 279, rac-(1S*,2S*)-2-(2-amino-5-chlorophenyl)-N-(6-(((6-cyclopropylimidazo[1,2-a]pyridin-2-yl)methyl)amino)pyrimidin-4-yl)cyclopropane-1-carboxamide], the EC50 was 100 to 1000 nM.
For `Nc1c(Cl)cccc1[C@H]1C[C@@H]1C(=O)Nc1cc(NCc2cn3cc(C4CC4)ccc3n2)ncn1` (racemic) [Example 280, rac-(1S*,2S*)-2-(2-amino-3-chlorophenyl)-N-(6-(((6-cyclopropylimidazo[1,2-a]pyridin-2-yl)methyl)amino)pyrimidin-4-yl)cyclopropane-1-carboxamide] the value was over 6000 nM.
